Results on nine compounds are retold here after ChEMBL document CHEMBL3286190, “Discovery of antitubulin agents with antiangiogenic activity as single entities with multitarget chemotherapy potential” (ACS Med Chem Lett, 2014).

The source made the active and inactive calls. No cut-off for these calls is given here. Bounds are passed on as bounds.

Data set [1] can be described thus: Growth inhibition of human OVCAR8 cells after 96 hrs incubation by sulforhodamine B technique. The class given is functional, cell-based. The settings on record: OVCAR-8, 96 h.
Data set [2] deals with HeLa. The data set can be described thus: Growth inhibition of wild type human HeLa cells after 96 hrs incubation by sulforhodamine B technique. The class given is functional, cell-based.
The subject of data set [3] is HeLa. The data set is described as follows: Growth inhibition of human HeLa cells overexpressing beta-3 after 96 hrs incubation by sulforhodamine B technique. Type of data set: functional, cell-based.
A further data set relates to NCI/ADR-RES. The data set is described as follows: Growth inhibition of human NCI/ADR-RES cells overexpressing P-gp after 96 hrs incubation by sulforhodamine B technique. The class given is functional, cell-based.
Another data set deals with Tubulin (Bos taurus, UniProt Q6B856+Q862L2+Q862F3). The data set can be described thus: Inhibition of bovine brain tubulin assembly preincubated for 15 mins followed by GTP addition measured for 20 mins by spectrophotometry.
A further data set concerns NCI60. The data set is described as follows: Growth inhibition of human NCI60 cells after 96 hrs incubation by sulforhodamine B technique. The class given is functional, cell-based.
In data set [4] the test system is MDA-MB-435. The data set is described as follows: Induction of apoptosis in human MDA-MB-435 cells assessed as PARP cleavage at IC50 concentration after 48 hrs by Western blotting analysis. Type of data set: functional, cell-based. For orientation: Immunoblotting shows a protein as a band on a membrane.
The test system of data set [5] is MDA-MB-435. The data set is described as follows: Induction of apoptosis in human MDA-MB-435 cells assessed as caspase 3 cleavage at IC50 concentration after 48 hrs by Western blotting analysis. The class given is functional, cell-based.
Data set [6] relates to 4T1. The settings on record: Mus musculus, 25 mg/kg.
Description: Antitumor activity against ip dosed mouse 4T1 cells expressing luciferase allografted in BALBc/J mouse assessed as reduction in lung metastases at 25 mg/kg twice weekly measured after 32 days
Data set [7] deals with Mus musculus. The data set is described as follows: Toxicity in athymic BALBc/J mouse xenografted with human MDA-MB-435 cells assessed as body weight at 25 mg/kg twice weekly. Type of data set: organism-based. Also noted: dose 25 mg/kg. The settings on record: in vivo. (In general: A xenograft is tissue or cells of one species grown in another, often human tumour cells in immunodeficient mice.)

Data set [8] deals with MDA-MB-435. The conditions noted are these: Homo sapiens, 25 mg/kg.
Description: Antitumor activity against human MDA-MB-435 cells xenografted into flank of athymic BALBc/J mouse assessed as decrease in tumor growth at 25 mg/kg twice weekly measured up to 34 days
Data set [9] deals with Mus musculus. The data set can be described thus: Toxicity in athymic NCr mouse xenografted with human U251 cells at 25 mg/kg twice weekly measured up to 34 days. The class given is organism-based, U-251. Also noted: dose 25 mg/kg. The conditions noted are these: in vivo, 816 h.
For a further data set, the species on record is Homo sapiens. The data set is described as follows: Disruption of microtubule organization in human MDA-MB-435 cells at IC50 concentration after 2 hrs by immunofluorescence assay. The class given is cell-based.
Data set [10] relates to Mus musculus. The data set can be described thus: Toxicity in BALBc/J mouse allografted with mouse 4T1 cells at 25 mg/kg twice weekly measured up to 32 days. The class given is organism-based. Also noted: dose 25 mg/kg. The settings on record: in vivo, 768 h.
Another data set has as its system Chorioallantoic membrane. The data set can be described thus: tissue or blood. The settings on record: Gallus gallus.
The subject of data set [11] is MDA-MB-435. The conditions noted are these: Homo sapiens, 25 mg/kg. This is another data set of the same source.
Description: Antitumor activity against human MDA-MB-435 cells xenografted into flank of athymic BALBc/J mouse assessed as decrease in tumor vascular density at 25 mg/kg twice weekly by CD31/PECAM-1 immunohistochemical staining
The target in a further data set is Tubulin (Homo sapiens) (UniProt P68371+Q9H4B7+P0DPH7+P68366+Q13509+Q71U36+P04350+Q3ZCM7+P07437+P68363+Q9BQE3+Q6PEY2+Q13885+Q9BVA1+Q9BUF5). The data set can be described thus: Displacement of [3H]-colchicine from tubulin (unknown origin) at 50 uM relative to control. Type of data set: protein-complex assay. (In a radioligand displacement assay an active substance lowers the binding of a labelled ligand.)

The test system of data set [12] is U-251. The settings on record: Homo sapiens, 25 mg/kg.
Description: Antitumor activity against human U251 cells xenografted into athymic NCr mouse assessed as decrease in tumor growth at 25 mg/kg twice weekly measured up to 34 days
Data set [13] concerns 4T1. The conditions noted are these: Mus musculus, 25 mg/kg. The source holds these as a separate data set.
Description: Antitumor activity against mouse 4T1 cells expressing luciferase allografted in BALBc/J mouse assessed as suppression of tumor growth at 25 mg/kg twice weekly measured up to 30 days
For data set [14], the system named is MDA-MB-435. The data set can be described thus: Cell cycle arrest in human MDA-MB-435 cells assessed as increase in accumulation at G2/M phase at IC50 concentration after 2 hrs by propidium iodide staining-based flow cytometry. Type of data set: functional.
For data set [15], the system named is Mus musculus. The data set is described as follows: Toxicity in athymic BALBc/J mouse xenografted with human MDA-MB-435 cells assessed as body weight at 30 mg/kg twice weekly. The class given is organism-based. Also noted: dose 30 mg/kg. The conditions noted are these: in vivo.
The subject of data set [16] is MDA-MB-435. The data set can be described thus: Antitumor activity against human MDA-MB-435 cells xenografted into flank of […] assessed as decrease in tumor growth at 30 mg/kg twice weekly measured up to 34 days. Also noted: dose 30 mg/kg. The class given is functional, organism-based.
Data set [17] has as its system MDA-MB-435. The data set can be described thus: Antitumor activity against human MDA-MB-435 cells xenografted into flank of athymic BALBc/J mouse assessed as decrease in tumor vascular density at 30 mg/kg twice weekly by CD31/PECAM-1 immunohistochemical staining. Also noted: dose 30 mg/kg. The class given is functional, organism-based.
Data set [18] concerns Mus musculus. The data set can be described thus: Toxicity in athymic NCr mouse at 30 mg/kg twice weekly measured up to 34 days. The settings on record: in vivo, 816 h.
The test system of data set [19] is U-251. The data set is described as follows: Antitumor activity against human U251 cells xenografted into athymic NCr mouse assessed as decrease in tumor growth at 30 mg/kg twice weekly measured up to 34 days. Type of data set: functional, organism-based. Also noted: dose 30 mg/kg.
In data set [20] the test system is Mus musculus. The data set is described as follows: Toxicity in BALBc/J mouse allografted with mouse 4T1 cells at 35 mg/kg twice weekly measured up to 32 days. Type of data set: organism-based. Also noted: dose 35 mg/kg. The settings on record: in vivo, 768 h.
Data set [21] deals with Mus musculus. The data set is described as follows: Toxicity in athymic NCr mouse xenografted with human cells at 35 mg/kg twice weekly measured up to 34 days. The conditions noted are these: in vivo, 816 h.
Data set [22] concerns U-251. The data set is described as follows: Antitumor activity against human U251 cells xenografted into athymic NCr mouse assessed as decrease in tumor growth at 35 mg/kg twice weekly measured up to 34 days. Type of data set: functional, organism-based. Also noted: dose 35 mg/kg.
For data set [23], the system named is Mus musculus. The data set can be described thus: Toxicity in athymic BALBc/J mouse xenografted with human MDA-MB-435 cells assessed as body weight at 35 mg/kg twice weekly. The class given is organism-based. Also noted: dose 35 mg/kg. The conditions noted are these: in vivo.
For data set [24], the system named is 4T1. The data set is described as follows: Antitumor activity against mouse 4T1 cells expressing luciferase allografted in BALBc/J mouse assessed as suppression of tumor growth at 35 mg/kg twice weekly measured up to 30 days. Also noted: dose 35 mg/kg. Type of data set: functional, organism-based.
Data set [25] concerns MDA-MB-435. The data set can be described thus: Antitumor activity against human MDA-MB-435 cells xenografted into flank of […] assessed as decrease in tumor growth at 35 mg/kg twice weekly measured up to 34 days. The class given is functional, organism-based. Also noted: dose 35 mg/kg.
Data set [26] relates to MDA-MB-435. The data set is described as follows: Antitumor activity against human MDA-MB-435 cells xenografted into flank of athymic BALBc/J mouse assessed as decrease in tumor vascular density at 35 mg/kg twice weekly by CD31/PECAM-1 immunohistochemical staining. Type of data set: functional, organism-based. Also noted: dose 35 mg/kg.
Data set [27] has as its system 4T1. The data set can be described thus: Antitumor activity against ip dosed mouse 4T1 cells expressing luciferase allografted in BALBc/J mouse assessed as reduction in lung metastases at 35 mg/kg twice weekly measured after 32 days. The class given is functional, organism-based. Also noted: dose 35 mg/kg.

Description for Chorioallantoic membrane: Antiangiogenic activity in chicken chorioallantoic membrane assessed as inhibition of VEGF/bFGF-induced angiogenesis treated 8 hrs after VEGF/bFGF addition measured after 40 hrs by microscopy

The IC50 is the point on the concentration scale where inhibition reaches its midpoint. A higher IC50 goes with weaker potency in that assay. With `CC(=O)O[C@H]1C(=O)[C@@]2(C)[C@H]([C@H](OC(=O)c3ccccc3)[C@]3(O)C[C@H](OC(=O)[C@H](O)[C@@H](NC(=O)c4ccccc4)c4ccccc4)C(C)=C1C3(C)C)[C@]1(OC(C)=O)CO[C@@H]1C[C@@H]2O` [PACLITAXEL], the IC50 in data set [1] came to 0.01 µM; with HeLa [2] it was 0.0053 µM; with HeLa [3], 0.016 µM; in the data set on NCI/ADR-RES it was 5 µM.
Take `COc1ccc(Nc2nc(C)nc3c(Cc4ccccc4)c[nH]c23)c(OC)c1.Cl`: the IC50 is above 5 µM in data set [1], above 40 µM against Tubulin and above 5 µM with NCI/ADR-RES.
The term inhibition denotes how much of the control response was suppressed. Take `COc1ccc(N(C)c2nc(C)nc3c(Cc4ccccc4)c[nH]c23)cc1.Cl`: in the data set on NCI60, the “growth inhibition (GI)” value is “Active”. For the same compound, the result in the data set on MDA-MB-435 [4], in the data set with MDA-MB-435 [5], in the data set filed under Homo sapiens and with MDA-MB-435 [14] was Active. The inhibition result in the data set on 4T1 [6], in the data set with MDA-MB-435 [8], in the data set with MDA-MB-435 [11], in the data set with U-251 [12] and in the data set with 4T1 [13] was “Active” in each case. The IC50 amounted to 1 µM in data set [1]; 0.28 µM with HeLa [2]; 21 µM against Tubulin; 0.28 µM with HeLa [3]; 0.7 µM in the data set with NCI/ADR-RES; 2.9 µM with Chorioallantoic membrane. For the same compound, the Activity result in the data set with Mus musculus [7], in the data set with Mus musculus [9] and in the data set with Mus musculus [10] was “Non-toxic” throughout. On Tubulin (Homo sapiens), this compound displayed an inhibition of 55%.
Take `Cc1nc(N(C)c2ccccc2)c2[nH]cc(Cc3ccccc3)c2n1.Cl`: the IC50 is above 10 µM with HeLa [2], above 20 µM against Tubulin and above 10 µM with HeLa [3].
`COc1ccc(/C=C\c2cc(OC)c(OC)c(OC)c2)cc1O` [COMBRETASTATIN A4]: the IC50 with HeLa [2] came to 0.0018 µM; in the data set on HeLa [3], 0.0025 µM.
As to `CCN(CC)CCNC(=O)c1c(C)[nH]c(/C=C2\C(=O)Nc3ccc(F)cc32)c1C` [SUNITINIB], the Activity result in the data set with Mus musculus [15] and in the data set with Mus musculus [18] was “Non-toxic” each time. In addition, the inhibition entry in the data set on MDA-MB-435 [16], in the data set on MDA-MB-435 [17] and in the data set on U-251 [19] was “Active” throughout.
On to `CC(=O)O[C@@]12CO[C@@H]1C[C@H](O)[C@@]1(C)C(=O)[C@H](O)C3=C(C)[C@@H](OC(=O)[C@H](O)[C@@H](NC(=O)OC(C)(C)C)c4ccccc4)C[C@@](O)([C@@H](OC(=O)c4ccccc4)[C@H]21)C3(C)C.O.O.O` [DOCETAXEL], for which the Activity result in the data set with Mus musculus [20], in the data set on Mus musculus [21] and in the data set on Mus musculus [23] was “Non-toxic” each time. Moreover, the inhibition result in the data set with U-251 [22], in the data set with 4T1 [24], in the data set on MDA-MB-435 [25], in the data set on MDA-MB-435 [26] and in the data set on 4T1 [27] was “Active” throughout.
On to `COc1ccc(Nc2nc(C)nc3c(Cc4ccccc4)c[nH]c23)cc1.Cl`, for which the results for the half-maximal inhibitory concentration (IC50) in the data set on HeLa [2], on Tubulin and in the data set on HeLa [3] were above 10 µM, above 20 µM and above 10 µM, respectively.
For `COc1ccc(N(C)c2nc(C)nc3cc[nH]c23)cc1.Cl`, on Tubulin, the IC50 came out at 10 µM.
